Here are results for ten molecules from patent publication US20220233512A1, “INHIBITING AN IMMUNE RESPONSE MEDIATED BY ONE OR MORE OF TLR2, RAGE, CCR5, CXCR4 AND CD4” (priority 2020, published 2022).

The structures appear in SMILES notation.

The target in experiment [1] is FLNA interactions with CXCR4, CD4 and CCR5 (Homo sapiens, UniProt P21333). Briefly: FLNA interactions with CXCR4, CD4 and CCR5 in lymphocytes (western blot). Particulars: 1 nM; lymphocytes of Ab42-treated young control subject and of AD patient. A general note: Immunoblotting shows a protein as a band on a membrane.
Sequence of FLNA interactions with CXCR4, CD4 and CCR5 (P21333 2-2647 limits assumed): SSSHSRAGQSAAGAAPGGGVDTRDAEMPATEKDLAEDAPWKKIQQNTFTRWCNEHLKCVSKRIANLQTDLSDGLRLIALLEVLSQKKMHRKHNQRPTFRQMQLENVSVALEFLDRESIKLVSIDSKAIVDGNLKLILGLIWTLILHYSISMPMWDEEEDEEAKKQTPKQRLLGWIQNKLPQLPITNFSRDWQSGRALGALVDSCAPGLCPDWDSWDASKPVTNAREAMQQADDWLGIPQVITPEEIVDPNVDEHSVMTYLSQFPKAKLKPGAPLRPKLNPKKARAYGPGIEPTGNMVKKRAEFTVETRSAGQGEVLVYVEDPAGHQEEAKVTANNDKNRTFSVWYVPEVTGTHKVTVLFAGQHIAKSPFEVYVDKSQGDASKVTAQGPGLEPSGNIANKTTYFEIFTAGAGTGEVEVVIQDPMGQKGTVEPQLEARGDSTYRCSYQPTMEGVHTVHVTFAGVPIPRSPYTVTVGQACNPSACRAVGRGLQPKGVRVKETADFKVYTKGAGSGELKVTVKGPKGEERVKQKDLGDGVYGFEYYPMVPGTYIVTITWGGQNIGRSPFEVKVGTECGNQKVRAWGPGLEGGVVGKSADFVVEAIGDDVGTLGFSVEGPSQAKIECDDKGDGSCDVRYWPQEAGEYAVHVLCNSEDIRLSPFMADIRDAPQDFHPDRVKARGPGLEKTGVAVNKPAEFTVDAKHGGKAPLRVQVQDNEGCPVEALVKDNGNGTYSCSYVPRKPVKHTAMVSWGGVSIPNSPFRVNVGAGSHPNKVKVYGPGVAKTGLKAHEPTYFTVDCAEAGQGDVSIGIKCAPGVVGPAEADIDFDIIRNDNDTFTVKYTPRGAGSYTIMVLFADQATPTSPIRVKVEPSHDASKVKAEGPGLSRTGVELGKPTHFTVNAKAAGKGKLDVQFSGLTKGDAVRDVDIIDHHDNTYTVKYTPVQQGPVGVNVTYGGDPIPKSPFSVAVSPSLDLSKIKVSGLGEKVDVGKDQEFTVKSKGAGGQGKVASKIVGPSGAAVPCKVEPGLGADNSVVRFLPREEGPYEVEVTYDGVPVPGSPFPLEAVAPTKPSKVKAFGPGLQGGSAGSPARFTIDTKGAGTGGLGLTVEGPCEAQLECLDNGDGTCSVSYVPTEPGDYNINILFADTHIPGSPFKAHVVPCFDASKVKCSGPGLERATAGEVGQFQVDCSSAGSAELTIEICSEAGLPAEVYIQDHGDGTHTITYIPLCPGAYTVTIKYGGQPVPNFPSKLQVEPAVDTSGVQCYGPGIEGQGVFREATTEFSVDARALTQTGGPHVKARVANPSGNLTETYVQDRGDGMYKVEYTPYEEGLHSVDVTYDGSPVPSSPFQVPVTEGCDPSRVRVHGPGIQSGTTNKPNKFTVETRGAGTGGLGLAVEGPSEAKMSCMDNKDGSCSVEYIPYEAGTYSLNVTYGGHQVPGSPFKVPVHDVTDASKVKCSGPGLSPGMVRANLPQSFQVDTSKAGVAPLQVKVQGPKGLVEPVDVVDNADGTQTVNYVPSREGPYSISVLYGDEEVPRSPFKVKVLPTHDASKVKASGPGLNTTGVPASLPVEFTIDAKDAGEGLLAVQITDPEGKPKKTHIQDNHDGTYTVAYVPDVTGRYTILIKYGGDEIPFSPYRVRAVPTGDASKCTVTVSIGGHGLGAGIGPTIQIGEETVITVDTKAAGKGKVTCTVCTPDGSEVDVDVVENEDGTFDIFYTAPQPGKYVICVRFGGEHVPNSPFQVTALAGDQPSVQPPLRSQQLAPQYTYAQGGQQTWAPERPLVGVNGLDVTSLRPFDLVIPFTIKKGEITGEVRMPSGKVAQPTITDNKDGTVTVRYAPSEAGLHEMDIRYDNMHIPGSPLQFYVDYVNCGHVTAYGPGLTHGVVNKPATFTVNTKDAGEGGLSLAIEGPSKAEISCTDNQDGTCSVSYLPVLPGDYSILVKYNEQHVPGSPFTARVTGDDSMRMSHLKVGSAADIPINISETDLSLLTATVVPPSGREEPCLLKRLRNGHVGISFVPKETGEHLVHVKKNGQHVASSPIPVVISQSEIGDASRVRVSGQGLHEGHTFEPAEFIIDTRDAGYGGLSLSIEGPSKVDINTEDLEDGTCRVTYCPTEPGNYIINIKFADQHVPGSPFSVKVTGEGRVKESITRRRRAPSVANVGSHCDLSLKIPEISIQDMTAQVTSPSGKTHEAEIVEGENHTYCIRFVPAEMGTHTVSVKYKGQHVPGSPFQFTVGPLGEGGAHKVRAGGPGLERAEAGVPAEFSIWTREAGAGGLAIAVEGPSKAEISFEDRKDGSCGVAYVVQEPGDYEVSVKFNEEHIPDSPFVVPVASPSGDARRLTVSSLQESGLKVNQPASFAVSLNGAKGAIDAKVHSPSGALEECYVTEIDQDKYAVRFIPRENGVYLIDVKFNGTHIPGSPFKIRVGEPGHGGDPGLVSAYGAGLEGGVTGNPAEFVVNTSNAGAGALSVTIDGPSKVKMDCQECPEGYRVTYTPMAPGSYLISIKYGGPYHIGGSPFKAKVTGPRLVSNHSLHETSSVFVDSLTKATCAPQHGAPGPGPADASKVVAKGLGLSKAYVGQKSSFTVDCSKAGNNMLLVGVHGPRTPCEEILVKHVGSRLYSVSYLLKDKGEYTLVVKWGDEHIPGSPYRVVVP
Experiment [2] has as its target T1, biotinylated FLNA pentapeptide of positions 2561-2565 (Homo sapiens, UniProt P21333).
T1 construct: the biotinylated FLNA pentapeptide of positions 2561-2565
Briefly: FITC-NLX-based FLNA screening assay. The format is binding. As to conditions: for Percent inhibition of FITC-NLX binding (preliminary study): 100 nM frozen-stored FITC-NLX, average of two runs. On the procedure:
[50 ml of the peptide solution from B+50 ml binding medium, final concentration for DMSO: 0.5%].
The final assay volume is 100 ml.
The final screening concentration for each new compound is initially 10 mM.
Compounds are tested in triplicate or quadruplicate.

The target in a further experiment is T2, mu opiate receptor (MOR) (Rattus norvegicus, UniProt P33535).
T2 construct: from tissue; host or cells: striatum (membrane preparation)
T2 sequence (P33535 whole entry): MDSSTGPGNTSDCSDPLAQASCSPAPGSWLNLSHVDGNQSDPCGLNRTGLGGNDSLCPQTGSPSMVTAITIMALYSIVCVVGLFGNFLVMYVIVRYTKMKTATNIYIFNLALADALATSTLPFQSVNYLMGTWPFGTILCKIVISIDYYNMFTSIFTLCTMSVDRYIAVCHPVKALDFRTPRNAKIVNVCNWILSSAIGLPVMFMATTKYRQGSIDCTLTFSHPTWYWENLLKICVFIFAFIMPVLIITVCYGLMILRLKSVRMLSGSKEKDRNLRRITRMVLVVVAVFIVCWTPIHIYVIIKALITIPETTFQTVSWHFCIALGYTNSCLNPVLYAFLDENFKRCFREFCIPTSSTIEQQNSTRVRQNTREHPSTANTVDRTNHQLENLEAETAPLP
Briefly: MOR agonist activity using [35S]GTPgS binding assay in striatal membranes. The experiment is classed as biochemical. In outline: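 Rat striatal membranes incubated 5 min at 30 °C in pH 7.5 HEPES buffer with 100 mM NaCl, 1 mM MgCl2 and 0.5 nM [35S]GTPgS, then 5 min with compound. Gαo-bound [35S]GTPgS isolated by immunoprecipitation and counted by liquid scintillation.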

Where [3] appears, read: 0.1 μM compound as agonist, Series C-1 table.
Where [4] appears, read: 1 μM compound as agonist, Series C-1 table.
Where [5] appears, read: 0.1 μM compound as agonist, Series C-2 table.
Setting [6] is: 1 μM compound as agonist, Series C-2 table.

Regarding `C=CCN1CC[C@]23c4c5ccc(O)c4O[C@H]2C(=O)CC[C@@]3(O)[C@H]1C5` [Naloxone, naloxone, reference compound], in experiment [1], the “FLNA linkages with CXCR4, CD4 and CCR5 (in words)” value is “reduced these linkages”.
`Nc1ccc(C(=O)N2CCC3(CC2)OCCN3S(=O)(=O)c2ccc(N)cc2)cc1` [Compound C0023]: the inhibition at 0.01 µM in experiment [2] (0.01 μM compound, C-Series-1 table, 10 nM FITC-NLX, read-out: Percent Binding Inhibition) turned out to be 35.9%. Moreover, the inhibition at 0.1 µM in experiment [2] (0.1 μM compound, C-Series-1 table, 10 nM FITC-NLX, read-out: Percent Binding Inhibition) stood at 41.7%. In addition, in experiment [2] (1 μM compound, C-Series-1 table, 10 nM FITC-NLX, read-out: Percent Binding Inhibition), the inhibition at 1 µM worked out at 47.2%. Further, the “MOR agonist activity ([35S]GTPgS binding to Gao)” value (from here on “MOR agonist activity”) on mu opiate receptor (MOR) (setting [3]) is listed as 153.2%; at mu opiate receptor (MOR) (1 μM + BFNA, Series C-1 table), 23.2%; on mu opiate receptor (MOR) (setting [4]), 233.7%.
Take `C=CCN1CC[C@]23c4c5ccc(O)c4O[C@H]2C(=O)CC[C@]3(O)[C@H]1C5` [(+) NLX]: the “Percent inhibition of FITC-NLX binding (preliminary study)” value in experiment [2] (0.1 nM compound) is listed as 22.7%; in experiment [2] (1 nM compound), 22.8%; in experiment [2] (10 nM compound), 23.1%; in experiment [2] (100 nM compound) it was 22.8%; in experiment [2] (1 mM compound), 39.8%.
`O=S(=O)(c1ccccc1Oc1ccccc1)N1CCC2(CC1)NCCO2` [Compound C0149M-2]: the “MOR agonist activity” value was 209.8% on mu opiate receptor (MOR) (setting [5]); 93.4% on mu opiate receptor (MOR) (1 μM + BFNA, Series C-2 table); 406.7% at mu opiate receptor (MOR) (setting [6]).
Take `CC(=O)c1ccc(S(=O)(=O)N2CCOC23CCN(CC(=O)O)CC3)cc1` [Compound C0100M]: the “MOR agonist activity” value is 173.6% on mu opiate receptor (MOR) (setting [5]); 195.6% on mu opiate receptor (MOR) (1 μM + BFNA, Series C-2 table); 245.9% at mu opiate receptor (MOR) (setting [6]).
As to `COc1ccc(S(=O)(=O)N2CCC3(CC2)OCCN3S(=O)(=O)c2ccc(C(C)=O)cc2)cc1` [Compound C0048], the “MOR agonist activity” value on mu opiate receptor (MOR) (setting [3]) worked out at 209.1%; at mu opiate receptor (MOR) (1 μM + BFNA, Series C-1 table), 89.9%; on mu opiate receptor (MOR) (setting [4]) it was 245.3%.
The corresponding values for `O=S(=O)(c1cccc(OC(F)(F)F)c1)N1CCC2(CC1)OCCN2S(=O)(=O)c1cccc(OC(F)(F)F)c1` [Compound C0005] are 180.4%, 166.4% and 227.2%.
The corresponding values for `Cc1ccccc1S(=O)(=O)N1CCC2(CC1)OCCN2S(=O)(=O)c1ccccc1C` [Compound C0015] are 138.7%, 126.8% and 204.7%.
The corresponding values for `O=S(=O)(c1ccc2ccccc2c1)N1CCC2(CC1)OCCN2S(=O)(=O)c1ccc2ccccc2c1` [Compound C0140M] are 126.1%, 83.0% and 215.4%.
For `Cc1ccc(S(=O)(=O)N2CCC3(CC2)OCCN3S(=O)(=O)c2ccc(C)cc2)cc1` [Compound C0001], the “MOR agonist activity” value at mu opiate receptor (MOR) (setting [3]) worked out at 129.3%; on mu opiate receptor (MOR) (1 μM + BFNA, Series C-1 table) it was 33.9%; at mu opiate receptor (MOR) (setting [4]), 184.3%.

By inhibition is commonly meant the share of the control response that was lost under treatment.
